Publication PMC8119466, “A screen of FDA-approved drugs identifies inhibitors of protein tyrosine phosphatase 4A3 (PTP4A3 or PRL-3)” (Scientific Reports, 2021)
Structures can show the parent of a compound that is named as a salt. Where two headings read alike, the source gives them in different places.

Columns and labels:
Format in all cases: biochemical
[1] = target: T1, recombinant PRL-2 (Homo sapiens, UniProt Q12974); experiment: In vitro phosphatase assay (DiFMUP hydrolysis), PRL-2;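 also: PRL-2 activity read as DiFMUP hydrolysis after 20 min at room temperature with drug, enzyme first pre-reduced at 4 °C for 20 min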
T1 construct: 6xHis (N, cleaved yes); made in house; host or cells: E. coli One Shot BL21 Star
T1 sequence (Q12974 1-167): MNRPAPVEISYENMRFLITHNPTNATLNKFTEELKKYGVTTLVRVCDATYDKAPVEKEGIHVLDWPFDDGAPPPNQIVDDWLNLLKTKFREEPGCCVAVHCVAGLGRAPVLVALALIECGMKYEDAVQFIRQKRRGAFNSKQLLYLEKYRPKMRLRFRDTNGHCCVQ
Experimental: Briefly, protein was diluted in reaction buffer and allowed to incubate at 4 °C for 20 min to allow for full reduction of the active site. DiFMUP, drug, and protein were added, and plates were incubated for 20 min at room temperature. Fluorescence intensities were measured on a Cytation 5 plate reader (Biotek) at an EX:360 nm and EM:460 nm. […] Inhibition selectivity for PRLs over a panel of other phosphatases was determined using PhosphataseProfiler (Eurofins, Cat # PP260).

[2] = target: T2, recombinant PRL-1 (Homo sapiens, UniProt Q93096); experiment: In vitro phosphatase assay (DiFMUP hydrolysis), PRL-1; also: test concentration or dose not given here
T2 construct: 6xHis (N, cleaved yes); made in house; host or cells: E. coli One Shot BL21 Star
T2 sequence (Q93096 1-173): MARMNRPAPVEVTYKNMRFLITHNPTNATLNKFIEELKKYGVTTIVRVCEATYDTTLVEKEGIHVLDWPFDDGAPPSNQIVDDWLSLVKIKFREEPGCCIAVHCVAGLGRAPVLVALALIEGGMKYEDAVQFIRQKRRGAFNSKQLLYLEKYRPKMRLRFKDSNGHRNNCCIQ

[3] = target: T3, recombinant PRL-3 (Homo sapiens, UniProt O75365); experiment: In vitro phosphatase assay (DiFMUP hydrolysis), PRL-3; also: test concentration or dose not given here
T3 construct: 6xHis (N, cleaved yes); made in house; host or cells: E. coli One Shot BL21 Star
T3 sequence (O75365 whole entry): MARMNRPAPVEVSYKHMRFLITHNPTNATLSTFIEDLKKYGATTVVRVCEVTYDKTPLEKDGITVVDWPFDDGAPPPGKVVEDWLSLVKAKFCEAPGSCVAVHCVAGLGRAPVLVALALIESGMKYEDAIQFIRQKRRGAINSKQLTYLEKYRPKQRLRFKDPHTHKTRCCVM

[4] = FDA-approved drug screen, compared to DMSO

| Compound | % Phosphatase Activity (compared to DMSO) PRL-2 [1, 4] | % Phosphatase Activity (compared to DMSO) PRL-1 [2, 4] | % Phosphatase Activity (compared to DMSO) PRL-3 [3, 4] | % Phosphatase Activity (compared to DMSO) PRL-2 [1] | % Phosphatase Activity (compared to DMSO) PRL-1 [2] | % Phosphatase Activity (compared to DMSO) PRL-3 [3] |
| --- | --- | --- | --- | --- | --- | --- |
| CCc1ccc(CCOc2ccc(CC3SC(=O)NC3=O)cc2)nc1 (stereo not drawn) [Pioglitazone HCl] | 100% | 81% | 86% | – | – | – |
| CCc1ccc(CCOc2ccc(CC3SC(=O)NC3=O)cc2)nc1 (stereo not drawn) [Pioglitazone] | 105% | 103% | 80% | – | – | – |
| CCN1CCN(C(=O)N[C@@H](C(=O)N[C@@H]2C(=O)N3[C@@H]2SC(C)(C)[C@@H]3C(=O)O)c2ccccc2)C(=O)C1=O [Piperacillin Sodium] | 91% | 86% | 73% | – | – | – |
| C1CNCCN1 [Piperazine] | – | – | – | 112% | 95% | 71% |
| O=C(/C=C/C=C/c1ccc2c(c1)OCO2)N1CCCCC1 [Piperine] | 119% | 125% | 106% | – | – | – |
| NC(=O)CN1CCCC1=O [Piracetam] | 96% | 98% | 83% | – | – | – |
| Cc1ccc(=O)n(-c2ccccc2)c1 [Pirfenidone] | 137% | 114% | 97% | – | – | – |
| CCn1cc(C(=O)O)c(=O)c2cnc(N3CCCC3)nc21 [Piromidic Acid] | 106% | 105% | 96% | – | – | – |
| CN1C(C(=O)Nc2ccccn2)=C(O)c2ccccc2S1(=O)=O [Piroxicam] | 76% | 88% | 70% | – | – | – |
| O=C(O)C[C@H](O)C[C@H](O)/C=C/c1c(C2CC2)nc2ccccc2c1-c1ccc(F)cc1 [Pitavastatin Calcium] | 88% | 82% | 92% | – | – | – |
| CN1CCC(=C2c3ccccc3CCc3sccc32)CC1.O=C(O)CC(O)C(=O)O [Pizotifen Malate] | 109% | 114% | 95% | – | – | – |
| Nc1cccc2c1C(=O)N(C1CCC(=O)NC1=O)C2=O (stereo not drawn) [Pomalidomide] | 248% | 264% | 204% | – | – | – |
| Cc1ccc(C(=O)Nc2ccc(CN3CCN(C)CC3)c(C(F)(F)F)c2)cc1C#Cc1cnc2cccnn12 [Ponatinib (AP24534)] | 417% | 396% | 319% | – | – | – |
| CCC/N=C1\S/C(=C\c2ccc(OC[C@H](O)CO)c(Cl)c2)C(=O)N1c1ccccc1C [Ponesimod] | 79% | 88% | 86% | – | – | – |
| CC[C@@H]([C@H](C)O)n1ncn(-c2ccc(N3CCN(c4ccc(OC[C@@H]5CO[C@@](Cn6cncn6)(c6ccc(F)cc6F)C5)cc4)CC3)cc2)c1=O [Posaconazole] | 99% | 89% | 73% | – | – | – |
| [I-].[K+] [Potassium Iodide] | 91% | 94% | 87% | – | – | – |
| C=CC(=O)N1CCC(Oc2cc3c(Nc4ccc(Cl)c(Cl)c4F)ncnc3cc2OC)CC1 [Poziotinib (HM781-36B)] | 80% | 96% | 106% | – | – | – |
| CCCCc1nc2cc(/C=C/C(=O)NO)ccc2n1CCN(CC)CC [Pracinostat (SB939)] | 87% | 96% | 80% | – | – | – |
| C#CCC(Cc1cnc2nc(N)nc(N)c2n1)c1ccc(C(=O)N[C@@H](CCC(=O)O)C(=O)O)cc1 (stereo partly drawn) [Pralatrexate] | 1210% | 1180% | 875% | – | – | – |
| C[n+]1ccccc1/C=N/O.[Cl-] [Pralidoxime (chloride)] | 91% | 99% | 105% | – | – | – |
| CCCN[C@H]1CCc2nc(N)sc2C1 [Pramipexole dihydrochloride monohydrate] | – | – | – | 98% | 87% | 90% |

| Compound | % Phosphatase Activity (compared to DMSO) PRL-2 [1, 4] | % Phosphatase Activity (compared to DMSO) PRL-1 [2, 4] | % Phosphatase Activity (compared to DMSO) PRL-3 [3, 4] | % Phosphatase Activity (compared to DMSO) PRL-2 [1] | % Phosphatase Activity (compared to DMSO) PRL-1 [2] | % Phosphatase Activity (compared to DMSO) PRL-3 [3] |
| --- | --- | --- | --- | --- | --- | --- |
| CCCN[C@H]1CCc2nc(N)sc2C1 [Pramipexole] | – | – | – | 106% | 109% | 72% |
| CCCCOc1ccc(OCCCN2CCOCC2)cc1 [Pramoxine HCl] | 91% | 82% | 74% | – | – | – |
| O=C(Nc1cccc2c(=O)cc(-c3nnn[nH]3)oc12)c1ccc(OCCCCc2ccccc2)cc1 [Pranlukast] | 205% | 147% | 54% | – | – | – |
| CC(C(=O)O)c1ccc2c(c1)Cc1cccnc1O2 (stereo not drawn) [Pranoprofen] | 87% | 97% | 92% | – | – | – |
| CC(=O)Oc1cc2c(s1)CCN(C(C(=O)C1CC1)c1ccccc1F)C2 (stereo not drawn) [Prasugrel Hydrochloride] | 109% | 92% | 87% | – | – | – |
| CC(=O)Oc1cc2c(s1)CCN(C(C(=O)C1CC1)c1ccccc1F)C2 (stereo not drawn) [Prasugrel] | 88% | 91% | 79% | – | – | – |
| CC[C@H](C)C(=O)O[C@H]1C[C@H](O)C=C2C=C[C@H](C)[C@H](CC[C@@H](O)C[C@@H](O)CC(=O)O)[C@H]21 [Pravastatin sodium] | 113% | 93% | 93% | – | – | – |
| O=C(C1CCCCC1)N1CC(=O)N2CCc3ccccc3C2C1 (stereo not drawn) [Praziquantel] | 88% | 102% | 73% | – | – | – |
| COc1cc2nc(N3CCN(C(=O)c4ccco4)CC3)nc(N)c2cc1OC [Prazosin HCl] | 435% | 460% | 263% | – | – | – |
| CC(=O)OCC(=O)[C@@]1(O)CC[C@H]2[C@@H]3CCC4=CC(=O)C=C[C@]4(C)[C@H]3[C@@H](O)C[C@@]21C [Prednisolone Acetate] | 102% | 105% | 80% | – | – | – |
| C[C@]12C=CC(=O)C=C1CC[C@@H]1[C@@H]2[C@@H](O)C[C@@]2(C)[C@H]1CC[C@]2(O)C(=O)CO [Prednisolone] | 99% | 89% | 103% | – | – | – |
| C[C@]12C=CC(=O)C=C1CC[C@@H]1[C@@H]2C(=O)C[C@@]2(C)[C@H]1CC[C@]2(O)C(=O)CO [Prednisone] | 91% | 98% | 80% | – | – | – |
| CC(=O)[C@H]1CC[C@H]2[C@@H]3CC=C4C[C@@H](O)CC[C@]4(C)[C@H]3CC[C@]12C [Pregnenolone] | 101% | 89% | 88% | – | – | – |
| CCCNC(C)C(=O)Nc1ccccc1C (stereo not drawn) [Prilocaine] | 107% | 97% | 78% | – | – | – |
| CCC1(c2ccccc2)C(=O)NCNC1=O [Primidone] | 93% | 84% | 79% | – | – | – |
| CCCC(C(=O)OCCN(CC)CC)(c1ccccc1)c1ccccc1 [Proadifen HCl] | 106% | 94% | 105% | – | – | – |
| CCCN(CCC)S(=O)(=O)c1ccc(C(=O)O)cc1 [Probenecid] | 114% | 110% | 84% | – | – | – |
| CC(C)(Sc1cc(C(C)(C)C)c(O)c(C(C)(C)C)c1)Sc1cc(C(C)(C)C)c(O)c(C(C)(C)C)c1 [Probucol] | 122% | 100% | 78% | – | – | – |
| CCN(CC)CCNC(=O)c1ccc(N)cc1 [Procainamide HCl] | 127% | 94% | 75% | – | – | – |
| CCN(CC)CCOC(=O)c1ccc(N)cc1 [Procaine HCl] | 112% | 108% | 92% | – | – | – |
